Assay results from US20220089568A1 (Janssen Biotech, Inc., priority 2019, published 2022).

Assays:
[1] = molecular target: T1, human DHODH (Homo sapiens, UniProt Q02127); assay: DHODH Enzymatic Assay; format: biochemical; conditions: purified human DHODH; DCIP absorbance, end-point mode
T1 construct: purchased Proteros PR-0044
Method in brief: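 Purified human DHODH activity read as absorbance of DCIP, the terminal electron acceptor, in […] pH 7.5, 150 mM NaCl, 0.5 mM EDTA, 0.1% Triton X-100. Reaction started with a substrate mix of 20 mM DHO, 5 mM CoQ6 and 1 mM DCIP in assay buffer.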

[2] = test system: MOLM-13 cells; assay: MOLM-13 Cellular Assay; format: cell-based; conditions: Homo sapiens, 72 hours exposure, cell viability by CellTiter-Glo
Description: The day prior to assay set-up, cells were pelleted, resuspended in fresh media, counted, and cells were plated at 0.4×10^6 cell/mL in a T150 flask. […] Cells were exposed to different concentrations of test compounds at 37° C., 5% CO2 for 72 hours immediately after seeding.

T1 sequence (Q02127 whole entry): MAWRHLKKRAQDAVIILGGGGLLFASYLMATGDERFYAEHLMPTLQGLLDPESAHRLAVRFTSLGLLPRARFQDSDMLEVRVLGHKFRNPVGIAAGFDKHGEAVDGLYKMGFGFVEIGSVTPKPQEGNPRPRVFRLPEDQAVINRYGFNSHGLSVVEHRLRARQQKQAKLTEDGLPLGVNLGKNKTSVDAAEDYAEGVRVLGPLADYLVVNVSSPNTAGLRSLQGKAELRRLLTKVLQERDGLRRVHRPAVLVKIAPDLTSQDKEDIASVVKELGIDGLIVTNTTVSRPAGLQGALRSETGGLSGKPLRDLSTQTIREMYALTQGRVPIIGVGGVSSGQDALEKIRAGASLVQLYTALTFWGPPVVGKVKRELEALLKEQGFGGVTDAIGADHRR

Row | EC50 [1] [µM] | EC50 [2] [µM] | Structure (SMILES)
1 | 0.0056 | 0.0211 | CCn1c(CO)nn(-c2nc(O[C@@H](C)C(F)(F)F)c(C(=O)Nc3c(C)cncc3F)cc2F)c1=O [Example 71, (S)-6-(4-Ethyl-3-(hydroxymethyl)-5-oxo-4,5-dihydro-1H-1,2,4-triazol-1-yl)-5-fluoro-N-(3-fluoro-5-methylpyridin-4-yl)-2-((1,1,1-trifluoropropan-2-yl)oxy)nicotinamide]
2 | 0.0036 | 0.0279 | CCn1c(CO)nn(-c2nc(O[C@@H](C)C(F)(F)F)c(C(=O)Nc3c(N(C)C)ccnc3OC)cc2F)c1=O [Example 76, (S)-N-(4-(Dimethylamino)-2-methoxypyridin-3-yl)-6-(4-ethyl-3-(hydroxymethyl)-5-oxo-4,5-dihydro-1H-1,2,4-triazol-1-yl)-5-fluoro-2-((1,1,1-trifluoropropan-2-yl)oxy)nicotinamide]
3 | 0.0072 | 0.0129 | CCn1c(CO)nn(-c2nc(O[C@@H](C)C(F)(F)F)c(C(=O)Nc3cn(C)nc3Cl)cc2F)c1=O [Example 80, N-(3-Chloro-1-methyl-pyrazol-4-yl)-6-[4-ethyl-3-(hydroxymethyl)-5-oxo-1,2,4-triazol-1-yl]-5-fluoro-2-[(1S)-2,2,2-trifluoro-1-methyl-ethoxy]pyridine-3-carboxamide]
4 | 0.0394 | 0.0194 | Cc1ccnc(Cl)c1NC(=O)c1cc(F)c(-n2nc(CF)n(CCCO)c2=O)nc1O[C@@H](C)C(F)(F)F [Example 101, N-(2-Chloro-4-methyl-3-pyridyl)-5-fluoro-6-[3-(fluoromethyl)-4-(3-hydroxypropyl)-5-oxo-1,2,4-triazol-1-yl]-2-[(1S)-2,2,2-trifluoro-1-methyl-ethoxy]pyridine-3-carboxamide]
5 | > 0.1 | 0.019 | CCn1c(CO)nn(-c2nc(O[C@@H](C)C(F)(F)F)c(C(=O)Nc3c[nH]nc3C#N)cc2F)c1=O [Example 100, N-(3-Cyano-1H-pyrazol-4-yl)-6-[4-ethyl-3-(hydroxymethyl)-5-oxo-1,2,4-triazol-1-yl]-5-fluoro-2-[(1S)-2,2,2-trifluoro-1-methyl-ethoxy]pyridine-3-carboxamide]
6 | 0.00107 | 0.000416 | CCn1c(CO)nn(-c2nc(O[C@@H](C)C(F)(F)F)c(C(=O)Nc3c(C)cc(Cl)nc3OC)cc2F)c1=O [Example 113, N-(6-Chloro-2-methoxy-4-methyl-3-pyridyl)-6-[4-ethyl-3-(hydroxymethyl)-5-oxo-1,2,4-triazol-1-yl]-5-fluoro-2-[(1S)-2,2,2-trifluoro-1-methyl-ethoxy]pyridine-3-carboxamide]
7 | 0.0039 | 0.0018 | Cc1ccnc(Cl)c1NC(=O)c1cc(F)c(-n2nc(CF)n(C(C)C)c2=O)nc1O[C@@H](C)C(F)(F)F [Example 86, (S)-2-(5-(((2-Chloro-4-methylpyridin-3-yl)-l2-azaneyl)carbonyl)-3-fluoro-6-((1,1,1-trifluoropropan-2-yl)oxy)pyridin-2-yl)-5-(fluoromethyl)-4-isopropyl-2,4-dihydro-3H-1,2,4-triazol-3-one]
8 | > 0.1 | > 0.1 | CCn1c(CO)nn(-c2nc(O[C@@H](C)C(F)(F)F)c(C(=O)Nc3ccnnc3OC)cc2F)c1=O [Example 109, 6-[4-Ethyl-3-(hydroxymethyl)-5-oxo-1,2,4-triazol-1-yl]-5-fluoro-N-(3-methoxypyridazin-4-yl)-2-[(1S)-2,2,2-trifluoro-1-methyl-ethoxy]pyridine-3-carboxamide]
9 | 0.000639 | 0.000435 | CCCn1c(CF)nn(-c2nc(O[C@@H](C)C(F)(F)F)c(C(=O)Nc3c(C)ccnc3Cl)cc2F)c1=O [Example 92, N-(2-Chloro-4-methyl-3-pyridyl)-5-fluoro-6-[3-(fluoromethyl)-5-oxo-4-propyl-1,2,4-triazol-1-yl]-2-[(1S)-2,2,2-trifluoro-1-methyl-ethoxy]pyridine-3-carboxamide]
10 | > 0.1 | 0.0091 | CCn1c(CO)nn(-c2nc(O[C@@H](C)C(F)(F)F)c(C(=O)Nc3c(OC)cncc3OC)cc2F)c1=O [Example 122, N-(3,5-Dimethoxy-4-pyridyl)-6-[4-ethyl-3-(hydroxymethyl)-5-oxo-1,2,4-triazol-1-yl]-5-fluoro-2-[(1S)-2,2,2-trifluoro-1-methyl-ethoxy]pyridine-3-carboxamide]
11 | 0.365 | > 0.1 | CCn1c(CO)nn(-c2nc(O[C@@H](C)C(F)(F)F)c(C(=O)Nc3cn(C)nc3COC)cc2F)c1=O [Example 61, (S)-6-(4-Ethyl-3-(hydroxymethyl)-5-oxo-4,5-dihydro-1H-1,2,4-triazol-1-yl)-5-fluoro-N-(3-(methoxymethyl)-1-methyl-1H-pyrazol-4-yl)-2-((1,1,1-trifluoropropan-2-yl)oxy)nicotinamide]
12 | 0.101 | > 0.1 | CCn1c(CO)nn(-c2nc(O[C@@H](C)C(F)(F)F)c(C(=O)Nc3c(Cl)ccc(=O)n3C)cc2F)c1=O [Example 64, (S)-N-(3-Chloro-1-methyl-6-oxo-1,6-dihydropyridin-2-yl)-6-(4-ethyl-3-(hydroxymethyl)-5-oxo-4,5-dihydro-1H-1,2,4-triazol-1-yl)-5-fluoro-2-((1,1,1-trifluoropropan-2-yl)oxy)nicotinamide]

The remaining lines, values behind:

Row | Structure (SMILES) | EC50 [1] [µM] | EC50 [2] [µM]
13 | CCn1c(CO)nn(-c2nc(O[C@@H](C)C(F)(F)F)c(C(=O)Nc3nccnc3Cl)cc2F)c1=O [Example 19, (S)-N-(3-Chloropyrazin-2-yl)-6-(4-ethyl-3-(hydroxymethyl)-5-oxo-4,5-dihydro-1H-1,2,4-triazol-1-yl)-5-fluoro-2-((1,1,1-trifluoropropan-2-yl)oxy)nicotinamide] | 0.0404 | 0.0513
14 | CCn1c(CO)nn(-c2nc(O[C@@H](C)C(F)(F)F)c(C(=O)Nc3cc(Cl)cnc3OC)cc2F)c1=O [Example 33, (S)-N-(5-Chloro-2-methoxypyridin-3-yl)-6-(4-ethyl-3-(hydroxymethyl)-5-oxo-4,5-dihydro-1H-1,2,4-triazol-1-yl)-5-fluoro-2-((1,1,1-trifluoropropan-2-yl)oxy)nicotinamide] | 0.0525 | > 0.1
15 | CCn1c(CO)nn(-c2nc(OC(C)C)c(C(=O)Nc3c(F)cccc3Cl)cc2F)c1=O [Example 7, N-(2-Chloro-6-fluorophenyl)-6-(4-ethyl-3-(hydroxymethyl)-5-oxo-4,5-dihydro-1H-1,2,4-triazol-1-yl)-5-fluoro-2-isopropoxynicotinamide] | 0.0005 | 0.000219
16 | CCn1c(CO)nn(-c2nc(O[C@@H](C)C(F)(F)F)c(C(=O)Nc3cc(C(C)C)nn3C)cc2F)c1=O [Example 59, (S)-6-(4-Ethyl-3-(hydroxymethyl)-5-oxo-4,5-dihydro-1H-1,2,4-triazol-1-yl)-5-fluoro-N-(3-isopropyl-1-methyl-1H-pyrazol-5-yl)-2-((1,1,1-trifluoropropan-2-yl)oxy)nicotinamide] | 0.0981 | > 0.1
17 | CCn1c(CO)nn(-c2nc(O[C@@H](C)C(F)(F)F)c(C(=O)Nc3cc(C)ncc3F)cc2F)c1=O [Example 37, (S)-6-(4-Ethyl-3-(hydroxymethyl)-5-oxo-4,5-dihydro-1H-1,2,4-triazol-1-yl)-5-fluoro-N-(5-fluoro-2-methylpyridin-4-yl)-2-((1,1,1-trifluoropropan-2-yl)oxy)nicotinamide] | 0.2 | > 0.1
18 | CCn1c(CO)nn(-c2nc(O[C@@H](C)C(F)(F)F)c(C(=O)Nc3c(F)cnc(OC)c3Cl)cc2F)c1=O [Example 30, (S)-N-(3-Chloro-5-fluoro-2-methoxypyridin-4-yl)-6-(4-ethyl-3-(hydroxymethyl)-5-oxo-4,5-dihydro-1H-1,2,4-triazol-1-yl)-5-fluoro-2-((1,1,1-trifluoropropan-2-yl)oxy)nicotinamide] | 0.0012 | 0.0013
19 | CCn1c(CO)nn(-c2nc(O[C@@H](C)C(F)(F)F)c(C(=O)Nc3ccncc3Cl)cc2F)c1=O [Example 10, (S)-N-(3-Chloropyridin-4-yl)-6-(4-ethyl-3-(hydroxymethyl)-5-oxo-4,5-dihydro-1H-1,2,4-triazol-1-yl)-5-fluoro-2-((1,1,1-trifluoropropan-2-yl)oxy)nicotinamide] | 0.0229 | 0.0609
20 | CCn1c(CO)nn(-c2nc(O[C@@H](C)C(F)(F)F)c(C(=O)Nc3cc[nH]c(=O)c3Cl)cc2F)c1=O [Example 20, (S)-N-(3-Chloro-2-oxo-1,2-dihydropyridin-4-yl)-6-(4-ethyl-3-(hydroxymethyl)-5-oxo-4,5-dihydro-1H-1,2,4-triazol-1-yl)-5-fluoro-2-((1,1,1-trifluoropropan-2-yl)oxy)nicotinamide] | 0.0043 | 0.108
21 | CCn1c(CO)nn(-c2nc(O[C@@H](C)C(F)(F)F)c(C(=O)Nc3c(C)nn(C)c3C)cc2F)c1=O [Example 55, (S)-6-(4-Ethyl-3-(hydroxymethyl)-5-oxo-4,5-dihydro-1H-1,2,4-triazol-1-yl)-5-fluoro-2-((1,1,1-trifluoropropan-2-yl)oxy)-N-(1,3,5-trimethyl-1H-pyrazol-4-yl)nicotinamide] | 0.0173 | > 0.1
22 | CCn1c(CO)nn(-c2nc(O[C@@H](C)C(F)(F)F)c(C(=O)Nc3c(F)cncc3C#N)cc2F)c1=O [Example 29, (S)-N-(3-Cyano-5-fluoropyridin-4-yl)-6-(4-ethyl-3-(hydroxymethyl)-5-oxo-4,5-dihydro-1H-1,2,4-triazol-1-yl)-5-fluoro-2-((1,1,1-trifluoropropan-2-yl)oxy)nicotinamide] | 0.0025 | 0.0044
23 | CCn1c(CO)nn(-c2nc(O[C@@H](C)C(F)(F)F)c(C(=O)Nc3cc(C)cnc3OC)cc2F)c1=O [Example 41, (S)-6-(4-Ethyl-3-(hydroxymethyl)-5-oxo-4,5-dihydro-1H-1,2,4-triazol-1-yl)-5-fluoro-N-(2-methoxy-5-methylpyridin-3-yl)-2-((1,1,1-trifluoropropan-2-yl)oxy)nicotinamide] | 0.0174 | 0.0524
